# Measurements: US20210284742A1, “METHODS OF TREATING OR PREVENTING MUCORMYCOSIS” (University of Maryland, Baltimore, priority 2018, published 2021)
# Assays:
# PGR = PGR translocation to the nucleus during R. delemar infection (confocal microscopy); type: cell-based, human; details: A549 cells pretreated with Gefitinib 1 h, R. delemar infection 2 h (FIG. 16)
# Experimental: Translocation of host PGR was visualized using the Zeiss LSM Duo confocal microscopy system. 12-mm glass coverslips in 12 well dishes were seeded with A549 alveolar epithelial cells and infected with 2×10^5 R. delemar or R. oryzae that have been incubated in F12K+10% FBS at 37° C. for 2 h. After a 2 h incubation at 37° C., cells were washed with HBSS and fixed with 3% paraformaldehyde. Cells were incubated with anti-PGR (Aviva MS-196-P1, recognizes B) for 1 h or overnight in 0.1% BSA for 1 hour. Coverslips were washed and counterstained with Alexa Fluor 546-labeled goat anti-rabbit or Alexa Fluor 488-goat anti-mouse. After washing, the coverslip will be mounted on a glass slide with a drop of ProLong Gold antifade reagent (Molecular Probes) and viewed by confocal fluorescent microscopy.
# [1] = test system: A549 cells infected with L. corymbifera; experiment: L. corymbifera-induced damage of A549 cells (LDH assay); type: cell-based, human; details: 25 μM Mifepristone overnight and/or 25 μM Gefitinib 1 h, 24 h infection (FIG. 14)
# [2] = test system: A549 cells infected with R. delemar; experiment: R. delemar-induced A549 cell damage (Pierce LDH assay); type: cell-based, human
# Experimental: Measurement of R. delemar-induced host cell damage. R. delemar-induced A549 cell damage was quantified using the Pierce LDH Assay with slight modifications to the manufacturer's protocol. Briefly, A549 cells were grown in 96-well tissue culture plates for 18-24 hours. […] For controls, host cells will be incubated with DMSO (the solvent used to reconstitute the inhibitor) or 25 μg/ml of mouse IgG antibody in parallel. After 24 hours of incubation at 37° C., 50 μl of the cell culture supernatant was collected from uninfected, infected, and fungi-only control wells and transferred to a 96 well plate to assay for LDH activity. Lysis buffer was added to all infected wells and incubated for 45 min at 37° C. After lysis, 50 μl of cell culture supernatant was transferred to a 96 well plate and used for the LDH Assay Kit per protocol. LDH release was calculated as follows: % Cytotoxicity=[Experimental release−Fungal Cells Spontaneous Control−Host Cells Spontaneous Control]/[Host Cell Maximum Control−Fungal Cells Maximum Control−Host Cells Spontaneous Control]×100. LDH is a cytosolic enzyme but will be released into the cell culture medium upon cell membrane damage. The amount of extracellular LDH is proportional to the amount of cell damage.
# R. delemar-induced A549 cell damage was quantified using the Pierce LDH assay, with slight modifications to the manufacturer's protocol. Briefly, A549 cells were grown in 96-well tissue culture plates for 18 to 24 h. Cells were then pretreated for 1 h with inhibitor and infected with 1×10^6-2×10^6 germlings suspended in 150 μl F-12K plus 10% FBS. For controls, host cells were incubated with the appropriate amount of diluent used to reconstitute the in parallel. After 24 h of incubation at 37° C., 50 μl of the cell culture supernatant was collected from uninfected, infected, and fungus-only control wells and transferred to a 96-well plate to assay for LDH activity. Lysis buffer was added to all infected wells, and the mixture was incubated for 45 min at 37° C. After lysis, 50 μl of cell culture supernatant was transferred to a 96-well plate and used for the LDH assay kit per the protocol. LDH release was calculated as follows: % cytotoxicity=[(experimental release−fungal cell spontaneous control−host cell spontaneous control)/(host cell maximum control−fungal cell maximum control−host cell spontaneous control)]×100. LDH is a cytosolic enzyme but will be released into the cell culture medium upon cell membrane damage. The amount of extracellular LDH is proportional to the amount of cell damage.
# R. delemar = experiment: Growth / germination of R. delemar in the absence of host cells; type: cell-based
# [3] = test system: A549 alveolar epithelial cells infected with R. delemar spores; experiment: Measurement of host cell endocytosis of R. delemar by A549 cells (Uvitex differential fluorescence); type: cell-based, human; details: for endocytosis of R. delemar spores: A549 cells pretreated 1 h with 25 μM Gefitinib or 25 μg/ml Cetuximab, 3 h infection, vs vehicle or IgG1 control antibody
# Experimental: Measurement of host cell endocytosis. 12-mm glass coverslips were seeded with A549 alveolar epithelial cells. […] For controls, host cells will be incubated with DMSO (the solvent used to reconstitute the inhibitor) or 25 μg/ml mouse IgG antibody in parallel. Host cells were then infected with 2×10^5 R. delemar spores. After incubation for 3 h, cells were fixed in 3% paraformaldehyde and stained for 1 h with 1% Uvitex, which specifically binds to chitin in the fungal cell wall. After washing with PBS, coverslips were mounted on a glass slide with a drop of ProLong Gold anti-fade reagent (Molecular Probes) and sealed. The total number of cell-associated organisms (i.e. fungi adhering to the monolayer) per high-powered field were determined by phase-contrast microscopy. The same field will be examined by epifluorescence microscopy, and the number of brightly fluorescent, uninternalized fungi were determined. The number of endocytosed organisms was calculated by subtracting the number of fluorescent fungi from the total number of visible fungi. At least 400 organisms were counted per treatment group in at least 15 different fields per coverslip. Experiments were performed in duplicate or triplicate on at least two separate days.
# 12-mm glass coverslips in 12 well dishes will be seeded with A549 alveolar epithelial cells. Cells were then pre-treated 1 h with inhibitors. For controls, host cells were incubated with the appropriate amount of diluent used to reconstitute the inhibitor in parallel. Host cells were then infected with 2×10^6 Rdelemar. After incubation for 3 h, cells were fixed in 3% paraformaldehyde and stained for 1 h with 1% Uvitex, which specifically binds to chitin in the fungal cell wall. After washing with PBS, coverslips were mounted on a glass slide with a drop of ProLong Gold anti-fade reagent (Molecular Probes) and sealed. The total number of cell-associated organisms (i.e., fungi adhering to the monolayer) per high-powered field was determined by phase-contrast microscopy. The same exact field was examined by epifluorescence microscopy, and the number of brightly fluorescent, uninternalized fungi will be determined. The number of endocytosed organisms is calculated by subtracting the number of fluorescent organisms from the total number of visible organisms. At least 400 organisms were counted in at least 15 different fields per coverslip. Experiments were performed in duplicate on separate days. Data will be expressed as median f interquartile range.
# [4] = spore preparations pre-treated with drug prior to the infection
smiles,measurement,setting,value
COc1cc2ncnc(Nc3ccc(F)c(Cl)c3)c2cc1OCCCN1CCOCC1 [Gefitinib],translocation of PGR from the cytosol to the nucleus,PGR,reduced
same,L. corymbifera-induced damage,[1],significantly decreased
same,R. delemar-induced damage of A549 cells (LDH assay),"[2]; A549 cells pretreated 1 h with 25 μM Gefitinib or 25 μg/ml Cetuximab, 24 h infection, vs vehicle or IgG1 control antibody",significantly reduced
same,R. delemar-induced damage of alveolar epithelial cells (LDH assay),"[2]; Example 3, Mifepristone 25 / Gefitinib 25, 24 h infection, vs vehicle (FIG. 12)",significantly decreased
same,host cell damage after pre-treatment of R. delemar spore preparations,[2]; [4],did not reduce
same,R. delemar mycelial growth,R. delemar,no effect
same,endocytosis of R. delemar spores,[3],significantly reduced
same,endocytosis of R. delemar spores,[3]; listed as Gefinitib,did not completely block
same,endocytosis after pre-treatment of R. delemar spore preparations,[3]; [4],did not reduce
